Results reported in ChEMBL document CHEMBL1137050, “Design and synthesis of 4-phenyl piperidine compounds targeting the mu receptor” (Bioorg Med Chem Lett, 2004).

Columns and labels:
[1] = target: Mu-type opioid receptor (Homo sapiens, UniProt P35372); assay: Binding affinity for recombinant human mu-opioid receptor was determined by using [3H]- diprenophine radioligand
[2] = target: Nociceptin receptor (Rattus norvegicus) (UniProt P35370); assay: Partial Agonistic activity by its ability to stimulate NOP in comparison to DAMGO; assay type: functional
Chain of Nociceptin receptor (Rattus norvegicus) (P35370 whole entry): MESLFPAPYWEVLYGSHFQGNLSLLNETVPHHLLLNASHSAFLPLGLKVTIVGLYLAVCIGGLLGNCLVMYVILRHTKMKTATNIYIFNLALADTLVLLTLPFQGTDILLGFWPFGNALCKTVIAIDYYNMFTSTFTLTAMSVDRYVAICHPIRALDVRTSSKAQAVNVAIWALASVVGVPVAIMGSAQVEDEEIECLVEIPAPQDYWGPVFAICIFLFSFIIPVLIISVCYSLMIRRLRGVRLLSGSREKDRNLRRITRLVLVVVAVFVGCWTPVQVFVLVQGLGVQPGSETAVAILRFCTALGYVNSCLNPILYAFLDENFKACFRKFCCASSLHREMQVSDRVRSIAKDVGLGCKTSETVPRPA

[3] = target: T1, Nociceptin receptor (Homo sapiens, UniProt P41146); assay: Binding affinity for opioid receptor like 1 expressed in HEK293 cells; assay type: cell-based
T1 sequence (P41146 whole entry): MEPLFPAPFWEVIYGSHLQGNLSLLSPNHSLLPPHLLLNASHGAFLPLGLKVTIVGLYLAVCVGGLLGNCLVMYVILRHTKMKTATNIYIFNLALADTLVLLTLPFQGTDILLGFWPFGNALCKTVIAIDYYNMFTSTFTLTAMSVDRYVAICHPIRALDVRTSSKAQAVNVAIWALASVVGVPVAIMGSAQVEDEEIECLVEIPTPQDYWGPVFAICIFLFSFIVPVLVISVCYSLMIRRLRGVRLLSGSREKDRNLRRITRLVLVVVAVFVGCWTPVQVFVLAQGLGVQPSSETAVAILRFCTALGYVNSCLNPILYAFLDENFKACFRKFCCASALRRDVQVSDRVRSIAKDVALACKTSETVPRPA

[4] = target: T1, Nociceptin receptor; assay: Partial agonistic activity determined by ability to stimulate GTP gamma S binding in comparison to nociceptin (N/OFQ)
[5] = target: T1, Nociceptin receptor; assay: Agonistic activity determined by ability to stimulate GTP gamma S binding in comparison to nociceptin (N/OFQ); set-up: concentration or dose not given beside the values
[6] = target: Nociceptin receptor (Rattus norvegicus) (UniProt P35370); assay: Agonistic activity by its ability to stimulate NOP in comparison to DAMGO; assay type: functional
[7] = target: Nociceptin receptor (Rattus norvegicus) (UniProt P35370); assay: Partial agonistic activity by its ability to stimulate NOP in comparison to DAMGO; assay type: functional
[8] = target: Mu opioid receptor (Rattus norvegicus) (UniProt P33535); assay: Partial agonistic activity by its ability to stimulate GTP gamma S binding in comparison to DAMGO
Chain of Mu opioid receptor (Rattus norvegicus) (P33535 whole entry, looked up): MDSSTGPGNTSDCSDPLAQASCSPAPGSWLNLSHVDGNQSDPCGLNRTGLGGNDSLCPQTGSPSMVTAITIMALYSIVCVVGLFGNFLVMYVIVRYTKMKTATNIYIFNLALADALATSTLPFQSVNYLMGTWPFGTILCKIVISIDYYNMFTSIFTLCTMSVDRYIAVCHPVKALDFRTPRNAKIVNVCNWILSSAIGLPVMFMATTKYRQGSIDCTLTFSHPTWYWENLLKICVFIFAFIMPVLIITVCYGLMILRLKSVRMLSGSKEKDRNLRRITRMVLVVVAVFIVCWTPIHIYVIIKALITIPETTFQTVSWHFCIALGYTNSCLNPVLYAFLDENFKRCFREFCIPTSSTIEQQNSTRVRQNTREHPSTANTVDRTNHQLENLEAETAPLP

Chain of Mu-type opioid receptor (P35372 whole entry): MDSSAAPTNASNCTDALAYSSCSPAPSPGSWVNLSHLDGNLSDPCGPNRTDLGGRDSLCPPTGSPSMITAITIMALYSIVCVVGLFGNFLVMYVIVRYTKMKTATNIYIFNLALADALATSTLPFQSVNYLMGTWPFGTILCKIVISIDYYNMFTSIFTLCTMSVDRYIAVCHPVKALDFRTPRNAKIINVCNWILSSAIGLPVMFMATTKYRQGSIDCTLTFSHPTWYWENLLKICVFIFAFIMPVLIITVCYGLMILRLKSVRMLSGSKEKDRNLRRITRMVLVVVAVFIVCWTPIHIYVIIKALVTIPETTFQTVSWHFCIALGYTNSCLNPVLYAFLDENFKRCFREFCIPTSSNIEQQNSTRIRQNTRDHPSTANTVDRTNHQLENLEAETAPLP

OC1(c2ccc(Cl)cc2)CCN(CCC(c2ccccc2)c2ccccc2)CC1
Ki [1]: 37 nM
Activity [2]: > 10%
Ki [3]: 372 nM
Activity [4]: > 10%

COC(=O)C(CCN1CCC(O)(c2ccc(Cl)c(C(F)(F)F)c2)CC1)(c1ccccc1)c1ccccc1
Activity [5]: > 75%
Ki [1]: 0.3 nM
Ki [3]: 149 nM
Activity [6]: > 75%

[O-][N+]1(CCC(c2ccccc2)c2ccccc2)CCC(O)(c2ccc(Cl)c(C(F)(F)F)c2)CC1 (stereo not drawn)
Ki [1]: > 10000 nM
Ki [3]: > 10000 nM

O=C(O)C(CCN1CCC(O)(c2cccc(C(F)(F)F)c2)CC1)(c1ccccc1)c1ccccc1
Activity [5]: > 75%
Ki [1]: 331 nM
Ki [3]: > 10000 nM

OC1(c2ccc(Cl)c(C(F)(F)F)c2)CCN(Cc2ccc(C(F)(F)F)cc2)CC1
Ki [1]: 104 nM
Activity [4]: > 10%

O=C(O)C(CCN1CCC(O)(c2ccc(Cl)cc2)CC1)(c1ccccc1)c1ccccc1
Activity [5]: > 75%
Ki [3]: > 10000 nM

N#Cc1ccc(CN2CCC(O)(c3ccc(Cl)c(C(F)(F)F)c3)CC2)cc1
Ki [1]: > 10000 nM

[O-][N+]1(Cc2ccc3ccccc3c2)CCC(O)(c2ccc(Cl)c(C(F)(F)F)c2)CC1 (stereo not drawn)
Ki [1]: > 10000 nM
Ki [3]: > 10000 nM

CN(C)C(=O)C(CCN1CCC(O)(c2ccc(Cl)c(C(F)(F)F)c2)CC1)(c1ccccc1)c1ccccc1 [FLUPERAMIDE]
Activity [5]: > 75%
Ki [1]: 0.11 nM
Ki [3]: 2150 nM

[O-][N+]1(CCC(c2ccccc2)c2ccccc2)CCC(O)(c2cccc(C(F)(F)F)c2)CC1 (stereo not drawn)
Ki [1]: 8130 nM
Ki [3]: > 10000 nM

CN(C)C(=O)C(CCN1CCC(O)(c2ccc(Cl)cc2)CC1)(c1ccccc1)c1ccccc1 [LOPERAMIDE]
Activity [5]: > 75%
Ki [3]: > 10000 nM

CN(C)C(=O)C(CCN1CCC(O)(c2cccc(C(F)(F)F)c2)CC1)(c1ccccc1)c1ccccc1
Activity [5]: > 75%
Ki [1]: 0.16 nM
Ki [3]: 505 nM
Activity [6]: > 75%

OC1(c2cccc(C(F)(F)F)c2)CCN(CCC(c2ccccc2)c2ccccc2)CC1
Activity [5]: > 75%
Activity [6]: > 75%

COC(=O)C(CCN1CCC(O)(c2cccc(C(F)(F)F)c2)CC1)(c1ccccc1)c1ccccc1
Activity [5]: > 75%
Ki [1]: 0.11 nM
Ki [3]: 78 nM
Activity [6]: > 75%

O=C(O)C(CCN1CCC(O)(c2ccc(Cl)c(C(F)(F)F)c2)CC1)(c1ccccc1)c1ccccc1
Activity [5]: > 75%
Ki [1]: 489 nM
Ki [3]: > 10000 nM

OC1(c2ccc(Cl)c(C(F)(F)F)c2)CCN(Cc2ccc3ccccc3c2)CC1
Activity [7]: > 10%
Ki [1]: 2.5 nM

OC1(c2ccc(Cl)c(C(F)(F)F)c2)CCN(CCC(c2ccccc2)c2ccccc2)CC1
Activity [8]: > 10%
Activity [5]: > 75%

COC(=O)C(CCN1CCC(O)(c2ccc(Cl)cc2)CC1)(c1ccccc1)c1ccccc1
Activity [5]: > 75%
Ki [1]: 0.23 nM
Ki [3]: 590 nM
Activity [6]: > 75%
